Measurements published in PubChem BioAssay AID1576 (EPA DSSTox, 2009).
Active and inactive are the calls of the source.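 How the source made its calls: active means chemicals shown by follow-up kinetic tests to compete for rat estrogen receptor sites, with a measured inhibition constant; inconclusive means some binding seen but constant unmeasurable owing to poor solubility; inactive means no binding up to top dose, or binding unconfirmed.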

Biological target: Estrogen receptor (Rattus norvegicus) (UniProt P06211)
Experiment: DSSTox (KIERBL) EPA Estrogen Receptor Ki Binding Study (Laws et al.) Database
Details: Rat uterine cytosol ER, 3H-estradiol competitive binding
Experimental: This study was conducted by EPA researchers to evaluate the validity of the rat uterine cytosolic (RUC) estrogen receptor (ER) competitive binding assay for use in the Endocrine Disruption Screening Program (EDSP). The assay measures the ability of radiolabeled 17-beta-estradiol (3H-E2) to bind with RUC ER in the presence of increasing concentrations of a test chemical. The goal is to employ this in vitro assay as a 1st tier screening tool for assessing the potential of structurally diverse environmental chemicals to bind to the ER, as well as to support research efforts to develop computational models to predict ER binding. A distinguishing feature of the present study was the use of secondary experimental analysis of binding curves and determination of Ki values to confirm that measured IC50 values corresponded to true positive results. The study concluded that a number of experimental conditions can confound interpretation of IC50 values obtained from the RUC ER-binding assay data and lead to false positive results. In particular, some chemical treatments likely alter the stability of the assay by changing the buffer pH, denaturing ER, or disrupting the ER binding kinetics. […] The chemicals used in this study were selected as part of a validation test for two Quantitative Structure-Activity Relationship (QSAR) models designed to predict ER binding [Fed. Reg. 67(250), 79618, Dec. 30, 2002]. Several hundred chemicals were initially screened, including approximately 100 chemicals selected from among the High Production Volume (HPV) chemicals included in EPA's Toxic Substances Control Act (TSCA) inventory that were predicted to be positive for ER binding, with the rest selected at random from the TSCA inventory. All chemicals were initially tested in ER competitive binding assays by Battelle Pacific Northwest Laboratories, Richland, Washington [EPA Contract Number 68-W-99-033, Task 6]. Approximately 50 chemicals produced binding curves that: (1) strongly implied competitive inhibition of ER binding, or (2) produced partial curves or irregular (non-sigmoid) binding curves. These chemicals were further evaluated in an ER competitive binding assay with secondary analysis to confirm true competitive inhibition and to determine an experimental Ki [U.S. EPA Contract 3D-5967-NTEX]. The results of RUC ER screening for these 50 structurally diverse chemicals, for which secondary confirmatory analyses were performed, were published in the Main Citation (Laws et al., 2006, Tox. Sci. 94:46-56). The remaining 228 chemicals were designated as non-binders based on initial screening studies.
The DSSTox KIERBL data files include all published IC50 and Ki experimental results for the 50 chemicals included in the Main Citation (Laws et al., 2006) (denoted Group 1), as well as previously unpublished results for an additional 228 structually diverse TSCA chemicals for which no ER binding was observed (denoted Group 2. IC50 values were determined for 32 compounds in Group 1 as the concentration of a test chemical that inhibits the maximal specific binding of 0.33 nM radiolabeled (3H) 17-beta-estradiol (E2) to rat uterine cytosolic (RUC) estrogen receptor (ER) by 50%. Confirmation of binding status was accomplished by secondary analysis using Lineweaver-Burk plots and slope replots to determine true competitive inhibition and an experimental Ki value. Ki is the inhibition constant for the test chemical, i.e., the concentration of the test chemical that will bind to half the binding sites at equilibrium (displacing half of the probe-bound receptors), in the absence of radioligand or other competitors. Ki reported as Mean +/- Standard Error from n=2 experiments (see StandardError_Ki_n2) and is determined from Lineweaver-Burk plots over the tested dose range (TestedRange_microM). For more information see BindingCurve_Group and BindingCurve_Details. […]

Sequence of Estrogen receptor (Rattus norvegicus) (P06211 whole entry, looked up): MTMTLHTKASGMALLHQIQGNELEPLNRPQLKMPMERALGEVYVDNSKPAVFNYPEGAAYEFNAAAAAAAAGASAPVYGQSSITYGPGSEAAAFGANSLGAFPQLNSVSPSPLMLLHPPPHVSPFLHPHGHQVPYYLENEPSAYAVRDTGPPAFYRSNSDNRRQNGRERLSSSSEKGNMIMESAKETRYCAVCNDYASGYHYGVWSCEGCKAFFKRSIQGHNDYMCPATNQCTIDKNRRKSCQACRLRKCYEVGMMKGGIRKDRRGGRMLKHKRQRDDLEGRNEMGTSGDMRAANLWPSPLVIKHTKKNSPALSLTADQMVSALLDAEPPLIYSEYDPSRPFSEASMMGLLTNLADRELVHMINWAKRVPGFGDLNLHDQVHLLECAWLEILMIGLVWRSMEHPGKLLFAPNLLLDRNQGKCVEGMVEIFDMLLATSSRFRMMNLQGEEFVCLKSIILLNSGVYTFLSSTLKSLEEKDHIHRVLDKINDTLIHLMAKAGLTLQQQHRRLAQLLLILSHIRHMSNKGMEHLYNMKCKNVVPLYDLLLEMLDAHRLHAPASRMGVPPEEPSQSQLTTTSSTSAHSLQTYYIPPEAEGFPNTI

Row | Compound | outcome | further results
1 | CNC(=O)Oc1ccccc1OC(C)C | inactive; none | 
2 | Cc1ccc(C)c(O)c1C | inactive; none | 
3 | CCCCCCCCCCCCCCC(Br)C(=O)O (stereo unspecified) | inactive; incomplete | 
4 | OCCOc1ccc(OCCO)cc1 | inactive; none | 
5 | CCCCCCCc1ccc(O)cc1 |  | Potency (TestedRange_microM: 44-178): 177 µM
6 | O=NN(c1ccccc1)c1ccccc1 | inactive; none | 
7 | c1ccc(-c2ccccc2)cc1 | inactive; none | 
8 | CCCCCCCCCCCCCCN(C)C |  | outcome (TestedRange_microM: 1-10): inactive; complete
9 | O=C(O)c1c(Cl)c(Cl)c(Cl)c(Cl)c1C1c2cc(Br)c(O)c(Br)c2Oc2c1cc(Br)c(O)c2Br | inactive; none | 
10 | CCCCCCC | inactive; none | 
11 | CCc1ccc(CC)cc1 | inactive; none | 
12 | CCCCCOC(C)=O | inactive; none | 
13 | O=C(Cl)c1ccccc1C(=O)Cl | inactive; none | 
14 | CC(Cl)Cl | inactive; none | 
15 | c1ccc(CNc2ncnc3c2ncn3C2CCCCO2)cc1 (stereo unspecified) | inactive; none | 
16 | CC(C)COC(=O)C(C)C | inactive; none | 
17 | OCCOCCOCCO | inactive; none | 
18 | CC(C)(c1ccc(O)cc1)c1ccc(O)cc1 |  | Potency (TestedRange_microM: 25-75): 24.8 µM
19 | Cc1ccc(C(=O)c2ccccc2)cc1 | inactive; incomplete | 
20 | CC1(C)C(C=C(Cl)Cl)C1C(=O)OC(C#N)c1cccc(Oc2ccccc2)c1 (stereo unspecified) | inactive; none | 
21 | CC(C)(C)c1cc(Cc2cc(C(C)(C)C)c(O)c(C(C)(C)C)c2)cc(C(C)(C)C)c1O | inactive; none | 
22 | O=C(Cl)c1ccccc1 | inactive; none | 
23 | CC(C)Oc1cc(-n2nc(C(C)(C)C)oc2=O)c(Cl)cc1Cl | inactive; none | 
24 | C[Si](O)(O)O | inactive; none | 

Row | Compound | outcome | further results
25 | Cc1cc(C)c(C)cc1C | inactive; none | 
26 | CCCCCCCCCCCCCC(=O)OCCCC | inactive; none | 
27 | Cc1cc(O)ccc1Cl |  | Potency (TestedRange_microM: 30-200): 373 µM
28 | Cc1cc(C(C)(C)C)c(O)c(C)c1Cn1c(=O)n(Cc2c(C)cc(C(C)(C)C)c(O)c2C)c(=O)n(Cc2c(C)cc(C(C)(C)C)c(O)c2C)c1=O | inactive; none | 
29 | NNC(=O)c1cccc(C(=O)NN)c1 | inactive; none | 
30 | O=C=Nc1cccc(C(F)(F)F)c1 | inactive; none | 
31 | c1c[nH]cn1 | inactive; none | 
32 | N#CCC(=O)O | inactive; none | 
33 | CCO[Si](C)(CCCN)OCC | inactive; none | 
34 | CCCCCCCCCCCCCCCCCCN=C=O | inactive; none | 
35 | CC(C)N | inactive; none | 
36 | CCCCCN(CCCCC)CCCCC | inactive; none | 
37 | CO[Si](CCCN)(OC)OC | inactive; none | 
38 | COc1ccccc1NC(=O)c1cc2ccccc2cc1O | inactive; none | 
39 | C=C(C)c1ccc(C(=C)C)cc1 | inactive; none | 
40 | CO[Si](CCCNCCC[Si](OC)(OC)OC)(OC)OC | inactive; none | 
41 | CN1CSC(=S)N(C)C1 | inactive; none | 
42 | O=Cc1ccc(F)cc1 | inactive; none | 
43 | CC(=O)c1ccc(O)cc1 | inactive; none | 
44 | O=C(O)c1ccc2cc(O)ccc2c1 | inactive; none | 
45 | C[Si]1(C)N[Si](C)(C)N[Si](C)(C)N1 | inactive; incomplete | 
46 | CCCCCCCCCCCCCCCCCCOC(=O)CCc1cc(C(C)(C)C)c(O)c(C(C)(C)C)c1 | inactive; none | 
47 | O=C(O)c1ccccc1Br | inactive; none | 
48 | OCCS | inactive; none | 

Row | Compound | outcome | further results
49 | CC(c1ccc(O)cc1)(c1ccc(O)cc1)c1ccc(O)cc1 |  | Potency (TestedRange_microM: 20-70): 18.3 µM
50 | O=C1CCC(=O)N1Br | inactive; none | 
51 | O=S(=O)(O)c1ccccc1Nc1ccc(C(=C2C=CC(=Nc3ccccc3)C=C2)c2ccc(Nc3ccccc3)cc2)cc1 | inactive; none | 
52 | O=C(O)C1CCC(C(=O)O)CC1 (stereo unspecified) | inactive; none | 
53 | CCCCCCCCCCCCOCCOCCO | inactive; none | 
54 | CC/C=C\CCOC(=O)c1ccccc1O | inactive; incomplete | 
55 | CCCCCCOC(C)=O | inactive; none | 
56 | CN(C)C(=O)Nc1ccc(Cl)c(Cl)c1 | inactive; none | 
57 | CCN(CC)c1nc(C)cc(OP(=S)(OC)OC)n1 | inactive; none | 
58 | O=C(n1ccnc1)n1ccnc1 | inactive; none | 
59 | O=C(O)CCCCC(=O)O | inactive; none | 
60 | O=C(O)c1ccccc1COc1ccccc1 | inactive; none | 
61 | CCCCN(CCCC)C(=S)[S-].CCCCN(CCCC)C(=S)[S-].[Ni+2] | inactive; none | 
62 | CCC(C)N (stereo unspecified) | inactive; none | 
63 | CC(C)(c1ccccc1)c1ccc(O)cc1 |  | Potency (TestedRange_microM: 3-30): 16.5 µM
64 | CSc1ccc(C(=O)C(C)(C)N2CCOCC2)cc1 | inactive; none | 
65 | NNC(=O)NN | inactive; none | 
66 | O=C(OCc1ccccc1)c1ccc(O)cc1 |  | Potency (TestedRange_microM: 25-75): 34.2 µM
67 | Oc1ccc(Sc2ccc(O)cc2O)c(O)c1 | inactive; incomplete | 
68 | CCCCOC(=O)CCC(C)=O | inactive; none | 
69 | O=C(OCc1ccccc1)c1ccccc1O | inactive; incomplete | 
70 | CC(O)C(=O)O (stereo unspecified) | inactive; none | 
71 | CCC[CH2][Sn]([CH2]CCC)([CH2]CCC)[O][Sn]([CH2]CCC)([CH2]CCC)[CH2]CCC | inactive; none | 
72 | O=[N+]([O-])c1c(Cl)c(Cl)c(Cl)c(Cl)c1Cl | inactive; none | 

Row | Compound | outcome | further results
73 | ClC1(Cl)C2(Cl)C3(Cl)C4(Cl)C(Cl)(Cl)C5(Cl)C3(Cl)C1(Cl)C5(Cl)C24Cl (stereo unspecified) | inactive; none | 
74 | C=CC(=O)OCCC(F)(F)C(F)(F)C(F)(F)C(F)(F)C(F)(F)C(F)(F)F | inactive; none | 
75 | CCOC(=O)c1ccccc1 | inactive; none | 
76 | COC(=O)CCCCC(=O)OC | inactive; none | 
77 | O=C(Oc1ccccc1)c1ccc2ccccc2c1O | inactive; none | 
78 | C=CS(=O)(=O)O | inactive; none | 
79 | C=CC(=O)OCCC(F)(F)C(F)(F)C(F)(F)C(F)(F)C(F)(F)C(F)(F)C(F)(F)C(F)(F)C(F)(F)C(F)(F)F | inactive; incomplete | 
80 | COC(=O)c1ccccc1S(=O)(=O)NC(=O)N(C)c1nc(C)nc(OC)n1 | inactive; none | 
81 | COc1cc(Cl)c(OC)cc1Cl | inactive; none | 
82 | C=C[Si](C)(C)O[Si](C)(C)C=C | inactive; none | 
83 | CC(c1cc(C(C)(C)C)cc(C(C)(C)C)c1O)c1cc(C(C)(C)C)cc(C(C)(C)C)c1O | inactive; none | 
84 | O=C=NCc1cccc(CN=C=O)c1 | inactive; none | 
85 | COCCO | inactive; none | 
86 | CN(C)c1ccc(C(=C2C=CC(=Nc3ccccc3)c3ccccc32)c2ccc(N(C)C)cc2)cc1 | inactive; none | 
87 | C=CC(=O)OCC(C)C | inactive; none | 
88 | CN(C)c1ccc(C(=C2C=CC(=[N+](C)C)C=C2)c2ccc(N(C)C)cc2)cc1 | inactive; none | 
89 | Cc1cc[cH-]c1.[C-]#[O+].[C-]#[O+].[C-]#[O+].[Mn] | inactive; none | 
90 | Cc1cc(O)c(C(C)(C)C)cc1C(C)CC(c1cc(C(C)(C)C)c(O)cc1C)c1cc(C(C)(C)C)c(O)cc1C (stereo unspecified) | inactive; none | 
91 | CCCCOCCCOC(=O)COc1ccc(Cl)cc1Cl | inactive; none | 
92 | COCOC | inactive; none | 
93 | CC(C)c1ccc2cc(C(C)C)ccc2c1 | inactive; none | 
94 | Cc1cc(C(C)(C)C)cc(C)c1C | inactive; none | 
95 | CC(C)(c1cc(Br)c(OCCO)c(Br)c1)c1cc(Br)c(OCCO)c(Br)c1 | inactive; none | 
96 | OC1OCCOC1O (stereo unspecified) | inactive; none | 
